Results taken from PubChem BioAssay AID330 (DTP/NCI, 2004).
“And” between values parts separate entries of the source, which are not always exact repeats. Equal entries are not always repeated. Inconclusive results and toxic doses are left out.

Test system: P388 leukemia ip, CD2F1 mice, survival T/C
Assay: NCI In Vivo Anticancer Drug Screen. Data for tumor model P388 Leukemia (intraperitoneal) in CD2F1 (CDF1) mice
Conditions: endpoint: median survival time, higher = longer survival
In short: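 Mice carrying the transplanted tumor received test compound or vehicle. Survival was recorded in each group, and the value is the treated-group measurement divided by that of the vehicle-treated control group.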

[1] = dose: 50.0 mg/kg/injection, schedule: Q01DX009 (ip), vehicle: saline with Tween-80
[2] = dose: 100.0 mg/kg/injection, schedule: Q01DX009 (ip), vehicle: saline with Tween-80
[3] = dose: 50.0 mg/kg/injection, schedule: Q01DX005 (ip), vehicle: saline with Tween-80
[4] = dose: 100.0 mg/kg/injection, schedule: Q01DX005 (ip), vehicle: saline with Tween-80
[5] = dose: 200.0 mg/kg/injection, schedule: Q01DX005 (ip), vehicle: saline with Tween-80
[6] = dose: 3.12 mg/kg/injection, schedule: Q01DX005 (ip), vehicle: Klucel (hydroxypropylcellulose) (HPC)
[7] = dose: 6.25 mg/kg/injection, schedule: Q01DX005 (ip), vehicle: Klucel (hydroxypropylcellulose) (HPC)
[8] = dose: 12.5 mg/kg/injection, schedule: Q01DX005 (ip), vehicle: Klucel (hydroxypropylcellulose) (HPC)
[9] = dose: 60.0 mg/kg/injection, schedule: Q01DX005 (ip), vehicle: saline with Tween-80
[10] = dose: 120.0 mg/kg/injection, schedule: Q01DX005 (ip), vehicle: saline with Tween-80
[11] = dose: 240.0 mg/kg/injection, schedule: Q01DX005 (ip), vehicle: saline with Tween-80
[12] = dose: 25.0 mg/kg/injection, schedule: Q01DX005 (ip), vehicle: Klucel (hydroxypropylcellulose) (HPC)
[13] = dose: 50.0 mg/kg/injection, schedule: Q01DX009 (ip), vehicle: Klucel (hydroxypropylcellulose) (HPC)
[14] = dose: 50.0 mg/kg/injection, schedule: Q01DX009 (ip), vehicle: saline
[15] = dose: 100.0 mg/kg/injection, schedule: Q01DX009 (ip), vehicle: saline
[16] = dose: 50.0 mg/kg/injection, schedule: Q01DX005 (ip), vehicle: Klucel (hydroxypropylcellulose) (HPC)
[17] = dose: 100.0 mg/kg/injection, schedule: Q01DX005 (ip), vehicle: Klucel (hydroxypropylcellulose) (HPC)
[18] = dose: 200.0 mg/kg/injection, schedule: Q01DX005 (ip), vehicle: Klucel (hydroxypropylcellulose) (HPC)

For `CN(Cc1ccc(Nc2ccccc2)cc1)C1CCCCC1`, the T/C (dose: 50.0 mg/kg/injection, schedule: Q01DX009 (ip), vehicle: saline + Tween-80 + alcohol) was 103 % of control and 106 % of control, the T/C (dose: 100.0 mg/kg/injection, schedule: Q01DX009 (ip), vehicle: saline + Tween-80 + alcohol) was 110 % of control and 111 % of control and the T/C (dose: 200.0 mg/kg/injection, schedule: Q01DX009 (ip), vehicle: saline + Tween-80 + alcohol) was 109 % of control and 112 % of control. For the same molecule, the T/C (dose: 400.0 mg/kg/injection, schedule: Q01DX009 (ip), vehicle: saline + Tween-80 + alcohol) was 114 % of control.
With `C1=CCOCOC1` the T/C [1] was 102 % of control and 109 % of control (2×), the T/C [2] was 104 % of control and 109 % of control and 116 % of control and the T/C (dose: 200.0 mg/kg/injection, schedule: Q01DX009 (ip), vehicle: saline with Tween-80) was 111 % of control.
For `CC(C)C1OC(=O)C=C1Sc1ccccc1` (stereo unspecified), the T/C [3] was 100 % of control, the T/C [4] was 99 % of control and the T/C [5] was 114 % of control.
With `COC(=O)c1c(C(=O)OC)c(Nc2ccccc2)c2ccccc2c1O` the T/C [6] was 115 % of control, the T/C [7] was 107 % of control and the T/C [8] was 99 % of control.
For `O=c1cc(CCl)[nH]nc1CCl`, the T/C (dose: 14.5 mg/kg/injection, schedule: Q04DX003 (ip), vehicle: saline with Tween-80) was 160 % of control, the T/C (dose: 33.0 mg/kg/injection, schedule: Q04DX003 (ip), vehicle: saline with Tween-80) was 158 % of control and the T/C (dose: 50.0 mg/kg/injection, schedule: Q04DX003 (ip), vehicle: saline with Tween-80) was 173 % of control.
With `Cc1ccc(NC(=S)SCc2ccc(Cl)cc2)cc1C` the T/C (dose: 50.0 mg/kg/injection, schedule: Q01DX009 (ip), vehicle: suspension in saline) was 101 % of control, the T/C (dose: 100.0 mg/kg/injection, schedule: Q01DX009 (ip), vehicle: suspension in saline) was 107 % of control and the T/C (dose: 200.0 mg/kg/injection, schedule: Q01DX009 (ip), vehicle: suspension in saline) was 97 % of control.
In the case of `O=C(CNC(=O)NCc1ccco1)NNC(=O)Nc1ccc(F)c(Cl)c1`, the T/C [9] is reported as 101 % of control, the T/C [10] is reported as 106 % of control and the T/C [11] is reported as 110 % of control.
With `COP(=O)(CS(=O)(=O)Oc1ccc(S(C)(=O)=O)cc1)OC` the T/C [6] was 97 % of control, the T/C [7] was 100 % of control and the T/C [8] was 99 % of control. The T/C [12] was 97 % of control.
With `NC[CH2][Sn]([c]1ccccc1)([CH]1CCCCC1)[CH]1CCCCC1` the T/C (dose: 3.75 mg/kg/injection, schedule: Q01DX005 (ip), vehicle: saline with Tween-80) was 100 % of control, the T/C (dose: 7.5 mg/kg/injection, schedule: Q01DX005 (ip), vehicle: saline with Tween-80) was 93 % of control and the T/C (dose: 15.0 mg/kg/injection, schedule: Q01DX005 (ip), vehicle: saline with Tween-80) was 99 % of control. For the same molecule, the T/C [9] was 92 % of control.
For `CCCC/C=C/C=C/C=C/CCCCCCCC(=O)OC(COC(=O)CCCCCCC/C=C/C1C=CC(CCCC)C(C(=O)O)C1C(=O)O)COC(=O)CCCCCCC/C=C/C1C=CC(CCCC)C(C(=O)O)C1C(=O)O` (stereo unspecified), the T/C [13] was 101 % of control, the T/C (dose: 100.0 mg/kg/injection, schedule: Q01DX009 (ip), vehicle: Klucel (hydroxypropylcellulose) (HPC)) was 111 % of control and the T/C (dose: 200.0 mg/kg/injection, schedule: Q01DX009 (ip), vehicle: Klucel (hydroxypropylcellulose) (HPC)) was 108 % of control.
With `Cc1c(C=[N+]2CCCCC2)c2ccccc2n1C` the T/C (dose: 6.25 mg/kg/injection, schedule: Q01DX009 (ip), vehicle: saline with Tween-80) was 100 % of control, the T/C (dose: 12.5 mg/kg/injection, schedule: Q01DX009 (ip), vehicle: saline with Tween-80) was 109 % of control and the T/C (dose: 25.0 mg/kg/injection, schedule: Q01DX009 (ip), vehicle: saline with Tween-80) was 109 % of control and 120 % of control. For the same molecule, the T/C [1] was 104 % of control and 118 % of control and the T/C [2] was 103 % of control.
`COc1ccccc1NC(=O)C(N=Nc1ccc(-c2nc3ccc(C)c(S(=O)(=O)O)c3s2)cc1S(=O)(=O)O)C(C)=O` (stereo unspecified) was tested, and the T/C [14] was 104 % of control, the T/C [15] was 105 % of control and the T/C (dose: 200.0 mg/kg/injection, schedule: Q01DX009 (ip), vehicle: saline) was 109 % of control.
With `Nc1ccc2nc3ccc(N)cc3[n+](-c3ccccc3)c2c1` the T/C (dose: 0.39 mg/kg/injection, schedule: Q04DX003 (ip), vehicle: saline) was 100 % of control, the T/C (dose: 0.78 mg/kg/injection, schedule: Q04DX003 (ip), vehicle: saline) was 95 % of control and the T/C (dose: 1.56 mg/kg/injection, schedule: Q04DX003 (ip), vehicle: saline) was 95 % of control. The T/C (dose: 3.13 mg/kg/injection, schedule: Q04DX003 (ip), vehicle: saline) was 95 % of control, the T/C (dose: 6.25 mg/kg/injection, schedule: Q04DX003 (ip), vehicle: saline) was 95 % of control and the T/C (dose: 8.0 mg/kg/injection, schedule: Q01DX009 (ip), vehicle: saline with Tween-80) was 154 % of control. For the same molecule, the T/C (dose: 12.0 mg/kg/injection, schedule: Q01DX009 (ip), vehicle: saline with Tween-80) was 154 % of control, the T/C (dose: 12.5 mg/kg/injection, schedule: Q04DX003 (ip), vehicle: saline) was 95 % of control and the T/C (dose: 18.0 mg/kg/injection, schedule: Q01DX009 (ip), vehicle: saline with Tween-80) was 86 % of control.
`CCCOC1NC(=O)Oc2ccccc21` (stereo unspecified) was tested, and the T/C [9] was 101 % of control and 104 % of control and 106 % of control, the T/C [10] was 104 % of control and 111 % of control and 117 % of control and the T/C [11] was 114 % of control and 117 % of control.
For `COc1ccc(N(C)C(=O)/C=C/N2CCCCC2)cc1`, the T/C [8] was 107 % of control, the T/C [12] was 98 % of control and the T/C [16] was 114 % of control and 98 % of control. The T/C [17] was 124 % of control and 96 % of control and the T/C [18] was 109 % of control.
For `CC(=O)OCC1OC(Nc2[nH]c(=O)[nH]c(=O)c2C(=O)CCl)C(OC(C)=O)C(OC(C)=O)C1OC(C)=O` (stereo unspecified), the T/C (dose: 100.0 mg/kg/injection, schedule: Q04DX002 (ip), vehicle: saline with Tween-80) was 121 % of control, the T/C (dose: 200.0 mg/kg/injection, schedule: Q04DX002 (ip), vehicle: saline with Tween-80) was 111 % of control and the T/C (dose: 400.0 mg/kg/injection, schedule: Q04DX002 (ip), vehicle: saline with Tween-80) was 99 % of control.
`CC1C2C1C1C3NN=CC3C2n2c(=O)n(-c3ccccc3)c(=O)n21` (stereo unspecified) was tested, and the T/C [16] was 99 % of control, the T/C [17] was 100 % of control and the T/C [18] was 105 % of control.
`NC1C([O-])OC(CO)C(O)C1O.O=C1OC(C(O)CO)C([O-])=C1[OH2+].[Cu+2]` (stereo unspecified) was tested, and the T/C (dose: 6.25 mg/kg/injection, schedule: Q01DX005 (ip), vehicle: saline) was 93 % of control and the T/C (dose: 12.5 mg/kg/injection, schedule: Q01DX005 (ip), vehicle: saline) was 99 % of control.
For `O=c1[nH][nH]c2c([N+](=O)[O-])ccc(F)c12`, the T/C (dose: 12.5 mg/kg/injection, schedule: Q01DX009 (ip), vehicle: Klucel (hydroxypropylcellulose) (HPC)) was 100 % of control, the T/C (dose: 25.0 mg/kg/injection, schedule: Q01DX009 (ip), vehicle: Klucel (hydroxypropylcellulose) (HPC)) was 101 % of control and the T/C [13] was 110 % of control.
With `CC1(C)NC(=S)N(O)C1(C)C` the T/C [14] was 111 % of control and the T/C [15] was 98 % of control.
With `O=C(N1CCCCC(Cl)(Cl)C1=O)C(Cl)(Cl)Cl` the T/C [3] was 106 % of control and the T/C [4] was 103 % of control.
In the case of `CC1(C)COC2(C)ON12` (stereo unspecified), the T/C [3] is reported as 106 % of control, the T/C [4] is reported as 117 % of control and the T/C [5] is reported as 113 % of control.
With `CCCc1c(C(=O)OCCCN(CC)CC)c(C(=O)OCCCN(CC)CC)c(CCC)n1-c1ccccc1` the T/C (dose: 25.0 mg/kg/injection, schedule: Q01DX005 (ip), vehicle: saline) was 105 % of control.
With `Cc1cc(=O)n2c(nc3ccccc32)o1` the T/C (dose: 60.0 mg/kg/injection, schedule: Q01DX005 (ip), vehicle: Klucel (hydroxypropylcellulose) (HPC)) was 104 % of control, the T/C (dose: 120.0 mg/kg/injection, schedule: Q01DX005 (ip), vehicle: Klucel (hydroxypropylcellulose) (HPC)) was 104 % of control and the T/C (dose: 240.0 mg/kg/injection, schedule: Q01DX005 (ip), vehicle: Klucel (hydroxypropylcellulose) (HPC)) was 99 % of control.
With `O=C(OCC(Cl)(Cl)Cl)N1[C@@H]2C=C[C@@H](N1C(=O)OCC(Cl)(Cl)Cl)[C@@]13CCCC21O3` (stereo partly specified) the T/C [16] was 103 % of control, the T/C [17] was 105 % of control and the T/C [18] was 103 % of control.
`c1cc[c]([Sn]([S]C23CC4CC(CC(C4)C2)C3)([c]2ccccc2)[c]2ccccc2)cc1` was tested, and the T/C (dose: 100.0 mg/kg/injection, schedule: Q04DX003 (ip), vehicle: suspension in saline) was 94 % of control, the T/C (dose: 200.0 mg/kg/injection, schedule: Q04DX003 (ip), vehicle: suspension in saline) was 98 % of control and the T/C (dose: 400.0 mg/kg/injection, schedule: Q04DX003 (ip), vehicle: suspension in saline) was 93 % of control.
